Tested on: adriamycinresistente S 180 Maus Sarcomazellen
Assay: MTT proliferation/cytotoxicity assay on adriamycin-resistant S 180 sarcoma cells, with or without adriamycin (sensitisation)
Assay type: cell-based
Conditions: S-180, 144 h, six days culture, MTT readout
Source text: Beispielsweise wurde die Sensibilisierung durch die Verbindungen A = 4-[N-(2-Hydroxy-2-methyl-propyl)-ethanolamino]-2,7-bis-(2,6-dimethyl-morpholino)-6-phenyl-pteridin, B = 4-Ethyl-ethanolamino-2,7-bis(2,6-dimethyl-morpholino)-6-phenyl-pteridin, C = 4-Ethanol-isopropanolamino-2,7-bis(2,6-dimethyl-morpholino)-6-phenyl-pteridin, D = 4-Diethanolamino-2,7-bis(2,6-dimethyl-morpholino)-6-phenyl-pteridin und E = 4-[N-(2-Hydroxy-2-methyl-propyl)-ethanolamino]-2,7-bis(cis-2,6-dimethyl-morpholino)-6-phenyl-pteridin am Beispiel von gegen Adriamycin resistenten Zellen wie folgt geprüft: Proliferierende, adriamycinresistente S 180 Maus Sarcomazellen werden in Anwesenheit unterschiedlicher Konzentrationen Testsubstanzen für sechs Tage kultiviert. Zytotoxisch oder zytostatisch wirkende Konzentrationen der Testsubstanzen werden durch vermindertes Zellwachstum oder durch das Absterben der Zellen angezeigt. Endpunkt des Assays ist die Zahl der lebenden Zellen pro Kultur, die indirekt ermittelt wird, indem die Eigenschaft vitaler Zellen, den Farbstoff MTT [= 3-(4,5-Dimethylthiazol-2-yl)-2,5-diphenyltetrazoliumbromid] zum farbigen Formazan zu reduzieren, ausgenützt wird. Als IC50 wird die Konzentration einer Testsubstanz bezeichnet, welche die Zahl der vitalen Zellen pro Kulturgefäß auf 50 % der unbehandelten Kontrolle reduziert. Die Testsubstanzen werden sowohl in Abwesenheit von Adriamycin als auch in Anwesenheit einer unter Kulturbedingungen nicht proliferationshemmend wirkenden Menge Adriamycin getestet. Pro Testsubstanz erhält man daher zwei IC50-Werte, einen in Anwesenheit (IC50 ADR), den anderen in Abwesenheit (IC50) von Adriamycin. Die Differenz der Zehnerlogarithmen der beiden IC50-Werte: Δ = 1gIC50-1gIC50 ADR ist ein Maß für die Erhöhung der Zytotoxizität der Testsubstanz durch Adriamycin.
Exponentiell wachsende, adriamycinresistente oder adriamycinsensitive S 180-Zellen werden in 96-Loch Flachboden-Mikrotiterplatten zu 2000 Zellen pro Loch in 100 »l Wachstumsmedium (RPMI-1640, das 10 % fötales Rinderserum enthält) ausplattiert. Die Kulturplatten werden im Brutschrank bei 37°C, 5 % CO₂ und 100 % relativer Luftfeuchtigkeit inkubiert. Nach 24 Stunden werden pro Loch 50 »l Wachstumsmedium, das unterschiedliche Konzentrationen an Testsubstanz enthält, und 50 »l Wachstumsmedium mit oder ohne Adriamycin hinzugefügt. Im Anschluß an eine weitere sechstägige Kultivierung werden 50 »l Tetrazoliumsalzlösung [5 mg 3-(4,5-Dimethylthiazol-2-yl)-2,5-diphenyltetrazoliumbromid pro ml Phosphat-gepufferter Salinelösung, vor Gebrauch 1:5 (v/v) mit RPMI-1640 verdünnt] in jedes Loch pipettiert. Nach vier Stunden Inkubation wird das Kulturmedium vorsichtig abgesaugt und intrazellulär gebildetes Formazan durch 150 »l Dimethylsulfoxid pro Loch solubilisiert. Die Platten werden kurz geschüttelt und die optische Dichte bei 570 nm mit einem Photometer wie einem Dynatech MR-600-Gerät gemessen. Die Bildung des farbigen Formazans durch Reduktion des Tetrazoliumsalzes ist proportional der Zahl der lebenden Zellen. Die Mittelwerte von Dreifach-Bestimmungen wurden bei der Berechnung der IC50-Werte verwendet (Verdünnungsstufe: 1:2).

[1] = Tabelle 2, Adriamycin 100 ng/ml

Row | Structure (SMILES) | IC50 (Tabelle 1, Adriamycin 0 ng/ml) [µg/mL] | IC50 (Tabelle 1, Adriamycin 25 ng/ml) [µg/mL] | IC50 (Tabelle 2, Adriamycin 0 ng/ml) [µg/mL] | IC50 [1] [µg/mL]
1 | CC(O)CN(CCO)c1nc(N2CC(C)OC(C)C2)nc2nc(N3CC(C)OC(C)C3)c(-c3ccccc3)nc12 (centres unmarked) [C, 4-Ethanol-isopropanolamino-2,7-bis(2,6-dimethyl-morpholino)-6-phenyl-pteridin] | 12.8 | 3.77 | 12.8 | 0.82
2 | CCN(CCO)c1nc(N2CC(C)OC(C)C2)nc2nc(N3CC(C)OC(C)C3)c(-c3ccccc3)nc12 (centres unmarked) [B, 4-Ethyl-ethanolamino-2,7-bis(2,6-dimethyl-morpholino)-6-phenyl-pteridin] | > 31.6 | 4.43 | > 31.6 | 0.77
3 | CC1CN(c2nc(N(CCO)CCO)c3nc(-c4ccccc4)c(N4CC(C)OC(C)C4)nc3n2)CC(C)O1 (centres unmarked) [D, 4-Diethanolamino-2,7-bis(2,6-dimethyl-morpholino)-6-phenyl-pteridin] | 14.4 | 5.78 | 14.4 | 1.57
4 | CC1CN(c2nc(N(CCO)CC(C)(C)O)c3nc(-c4ccccc4)c(N4CC(C)OC(C)C4)nc3n2)CC(C)O1 (centres unmarked) [A, 4-[N-(2-Hydroxy-2-methyl-propyl)-ethanolamino]-2,7-bis-(2,6-dimethyl-morpholino)-6-phenyl-pteridin] | 20.7 | 1.49 | 20.7 | < 0.5
5 | C[C@@H]1CN(c2nc(N(CCO)CC(C)(C)O)c3nc(-c4ccccc4)c(N4C[C@@H](C)O[C@@H](C)C4)nc3n2)C[C@H](C)O1 [E, 4-[N-(2-Hydroxy-2-methyl-propyl)-ethanolamino]-2,7-bis(cis-2,6-dimethyl-morpholino)-6-phenyl-pteridin] | 7.5 | 0.5 | 7.5 | 0.1

From patent publication EP0362645B1, “Use of pteridines in the prevention of the primary and secondary resistance during chemotherapy, and medicaments containing these compounds” (Dr. Karl Thomae GmbH, priority 1988, dated 1990)
